# Assay results as given in PMC3914206.
# Target: T1, panel of 442 kinases (Homo sapiens, UniProt P36888, D835H)
# T1 construct: purchased KINOMEscan
# T1 sequence (P36888 27-993 D835H): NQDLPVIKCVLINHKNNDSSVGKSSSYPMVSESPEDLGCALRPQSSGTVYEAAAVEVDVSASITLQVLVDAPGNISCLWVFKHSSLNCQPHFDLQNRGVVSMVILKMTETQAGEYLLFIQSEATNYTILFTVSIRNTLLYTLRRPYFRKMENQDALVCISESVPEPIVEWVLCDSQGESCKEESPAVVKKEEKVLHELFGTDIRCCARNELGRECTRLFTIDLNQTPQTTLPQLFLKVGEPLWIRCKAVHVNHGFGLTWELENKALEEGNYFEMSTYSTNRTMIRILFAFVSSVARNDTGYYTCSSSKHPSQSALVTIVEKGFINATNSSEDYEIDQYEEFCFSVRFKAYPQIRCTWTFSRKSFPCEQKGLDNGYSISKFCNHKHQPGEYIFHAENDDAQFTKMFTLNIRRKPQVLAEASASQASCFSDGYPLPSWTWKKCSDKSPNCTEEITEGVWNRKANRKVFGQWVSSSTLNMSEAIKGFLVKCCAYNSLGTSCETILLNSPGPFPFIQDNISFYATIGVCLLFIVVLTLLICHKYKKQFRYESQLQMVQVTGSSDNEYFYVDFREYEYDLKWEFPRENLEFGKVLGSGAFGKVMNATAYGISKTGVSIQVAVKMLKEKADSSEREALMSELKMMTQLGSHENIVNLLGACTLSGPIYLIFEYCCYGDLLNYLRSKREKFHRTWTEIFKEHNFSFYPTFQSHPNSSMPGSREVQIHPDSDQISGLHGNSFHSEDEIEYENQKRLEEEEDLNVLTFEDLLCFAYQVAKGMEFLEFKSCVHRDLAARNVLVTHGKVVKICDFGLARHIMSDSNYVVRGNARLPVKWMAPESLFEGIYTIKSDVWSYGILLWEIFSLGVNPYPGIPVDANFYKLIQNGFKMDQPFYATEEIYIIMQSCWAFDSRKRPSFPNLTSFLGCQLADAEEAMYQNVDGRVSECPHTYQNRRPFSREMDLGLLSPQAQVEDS
# Assay type: binding
# Conditions: Compound Concentration 10 µM
# From the text: We assessed the selectivity of members of this scaffold using the KINOMEscan methodology across a near comprehensive panel of 442 kinases [[18,27]].
row,Structure (SMILES),KINOMEscan: FLT3(D835H)
1,COc1cc(C(=O)N2CCC(N3CCN(C)CC3)CC2)ccc1Nc1ncc2c(n1)N(C)c1ccccc1C(=O)N2C [15 (LRRK2-IN-1)],100
2,"COc1cc(C(=O)N2CCC(N3CCN(C)CC3)CC2)ccc1Nc1ncc2c(n1)N(C1CCCC1)c1ccccc1C(=O)N2C [Compound 25, 11-cyclopentyl-2-((2-methoxy-4-(4-(4-methylpiperazin-1-yl)piperidine-1-carbonyl)phenyl)amino)-5-methyl-5H-benzo[e]pyrimido[5,4-b][1,4]diazepin-6(11H)-one]",100
3,CCOc1cc(C(=O)N2CCC(N3CCN(C)CC3)CC2)ccc1Nc1ncc2c(n1)N(C1CCCC1)c1ccccc1C(=O)N2C [Compound 26],100
